Patent US20080319042A1, “Compositions and methods for treatment of liver disease” (priority 2007, published 2008)
Several values for one entry are separate records, joined by “and”; a condition that tells them apart may be missing. Equal values may be shown once.

Experiments:
[1] = system: hepatitis B surface antigen (HBsAg) production; assay: Anti-HBSAg Assay (Procedure A); type: cell-based, hepatitis B virus; conditions: 50 μg/ml
Experimental: The HBV-producing human hepatoblastoma cell line, Hep G2.2.15 was maintained in DMEM supplemented with 10% fetal bovine serum (FBS), 2 mM glutamine, 100 units/ml penicillin, 100 μg/ml streptomycin and 380 μg/ml gentamicin sulfate (G418) at 37° C. under 5% CO2 in air. The Hep G2 parental cells were grown under identical conditions in MEM with Earle's salts without G418.
Hep G2.2.15 cells (190 μl) were seeded onto microtiter plates at a concentration of 20×10^4 cells/ml. The cells incubated overnight in medium without G418 after which the compound compositions (10 μl) were added. Five 2-fold serial dilutions of extracts or fractions were tested starting at 200 μg/ml final culture concentration. PBS and 3TC (lamivudine) were included as the negative and positive controls, respectively. The treated cells were incubated at 37° C. for 4 days, after which the hepatitis B surface antigen (HBsAg) production in culture supernatants was assayed. The HBsAg released into the culture medium in the presence or absence of test samples was assayed using the BIO-RAD Genetic Systems HBsAg EIA 3.0 kit (Bio-Rad, Redmond, Wash.). This enzyme immunoassay is based on the capture of HBsAg on monoclonal antibody-coated plates. Four- and twelve-fold dilutions of all culture supernatants collected were assayed in triplicate wells of the EIA plate. The percentage inhibition of HBsAg secretion in the presence of the plant samples was calculated against the negative control (PBS).

[2] = system: HBeAg; assay: Anti-HBSAg Assay (Procedure B), HBeAg; type: cell-based, hepatitis B virus; design: HBeAg Ave: unit not given here
[3] = system: HBsAg; assay: Anti-HBSAg Assay (Procedure B), HBsAg; type: cell-based, hepatitis B virus; design: HBsAg Ave.: unit not given here
Experimental: The HBV-producing human hepatoblastoma cell line, Hep G2 2.2.15 is maintained in DMEM supplemented with 10% fetal bovine serum (FBS), 2 mM glutamine, 100 units/ml penicillin, 100 μg/ml streptomycin at 37° C. under 5% CO2 in air.
Samples were dissolved in DMSO at the concentration of 20 mg/mL, then further diluted with DMEM medium to the appropriate concentration.
Hep G2 2.2.15 cells (120 μl) were seeded onto 96-well plates at a concentration of 2×10^5 cells/mL. The cells incubated for 72 h in the medium without G418, after which the test samples (120 μl) were added. Five 3-fold serial dilutions of samples were tested. PBS and 3TC (lamivudine) were included as the negative and positive controls, respectively. The treated cells were incubated at 37° C. for 9 days; with the medium with sample being changed each 3 days, after which the culture supernatant was removed for analysis of both the hepatitis B surface antigen (HBsAg) production and hepatitis B DNA expression.
The HBsAg released into the culture medium in the presence or absence of test material was assayed using the kit manufactured by Shanghai Siic Kehua Biotech Co., Ltd (Shanghai, China). This enzyme immunoassay is based on the capture of HBsAg on monoclonal antibody-coated plates. Four- and twelve-fold dilutions of all culture supernatants collected were assayed in triplicate wells of the kit plate. The percentage inhibition of HBsAg secretion in the presence of the compound was calculated against the negative control (PBS). The IC50 values, the dose that inhibited viruses by 50%, were calculated using non-linear regression analysis (percent survival versus concentration).

[4] = system: HBV DNA; assay: Anti-HBV DNA Assay; type: cell-based, hepatitis B virus; conditions: for HBV DNA copies/ml: replicates, listed as HP-S3
[5] = system: HCV/HIV pseudovirions; assay: microbe, parasite or virus in culture; type: cell-based, hepatitis C virus; conditions: 100 μg/mL; FIG. 1

SMILES: OCC1=C[C@@H](O)[C@@H]2C=CO[C@@H](O[C@@H]3O[C@H](CO)[C@@H](O)[C@H](O)[C@H]3O)[C@H]12 [aucubin]
- % Control HBSAg [1]: 100%
- % Inhibition [1]: 0%
- HBeAg Ave ([2]; 12.5 μg/mL): 1.378
- HBeAg Inhibition % ([2]; 12.5 μg/mL): 0%
- HBeAg OD1 ([2]; 12.5 μg/mL): 1.397
- HBeAg OD2 ([2]; 12.5 μg/mL): 1.419
- HBeAg OD3 ([2]; 12.5 μg/mL): 1.318
- HBeAg Ave ([2]; 25 μg/mL): 1.364
- HBeAg Inhibition % ([2]; 25 μg/mL): 0%
- HBeAg OD1 ([2]; 25 μg/mL): 1.332
- HBeAg OD2 ([2]; 25 μg/mL): 1.369
- HBeAg OD3 ([2]; 25 μg/mL): 1.390
- HBeAg Ave ([2]; 50 μg/mL): 1.383
- HBeAg Inhibition % ([2]; 50 μg/mL): 0%
- HBeAg OD1 ([2]; 50 μg/mL): 1.357
- HBeAg OD2 ([2]; 50 μg/mL): 1.437
- HBeAg OD3 ([2]; 50 μg/mL): 1.354
- HBeAg Ave ([2]; 100 μg/mL): 1.616
- HBeAg Inhibition % ([2]; 100 μg/mL): 0%
- HBeAg OD1 ([2]; 100 μg/mL): 1.707
- HBeAg OD2 ([2]; 100 μg/mL): 1.479
- HBeAg OD3 ([2]; 100 μg/mL): 1.662
- HBeAg Ave ([2]; 200 μg/mL): 1.357
- HBeAg Inhibition % ([2]; 200 μg/mL): 0%
- HBeAg OD1 ([2]; 200 μg/mL): 1.350
- HBeAg OD2 ([2]; 200 μg/mL): 1.305
- HBeAg OD3 ([2]; 200 μg/mL): 1.415
- HBsAg Ave. ([3]; 12.5 μg/mL): 1.232
- HBsAg Inhibition % ([3]; 12.5 μg/mL): 0%
- HBsAg OD1 ([3]; 12.5 μg/mL): 1.196
- HBsAg OD2 ([3]; 12.5 μg/mL): 1.261
- HBsAg OD3 ([3]; 12.5 μg/mL): 1.238
- HBsAg Ave. ([3]; 25 μg/mL): 1.309
- HBsAg Inhibition % ([3]; 25 μg/mL): 0%
- HBsAg OD1 ([3]; 25 μg/mL): 1.242
- HBsAg OD2 ([3]; 25 μg/mL): 1.384
- HBsAg OD3 ([3]; 25 μg/mL): 1.302
- HBsAg Ave. ([3]; 50 μg/mL): 1.272
- HBsAg Inhibition % ([3]; 50 μg/mL): 0%
- HBsAg OD1 ([3]; 50 μg/mL): 1.218
- HBsAg OD2 ([3]; 50 μg/mL): 1.375
- HBsAg OD3 ([3]; 50 μg/mL): 1.222
- HBsAg Ave. ([3]; 100 μg/mL): 1.292
- HBsAg Inhibition % ([3]; 100 μg/mL): 0%
- HBsAg OD1 ([3]; 100 μg/mL): 1.276
- HBsAg OD2 ([3]; 100 μg/mL): 1.353
- HBsAg OD3 ([3]; 100 μg/mL): 1.246
- HBsAg Ave. ([3]; 200 μg/mL): 1.541
- HBsAg Inhibition % ([3]; 200 μg/mL): 0%
- HBsAg OD1 ([3]; 200 μg/mL): 1.546
- HBsAg OD2 ([3]; 200 μg/mL): 1.616
- HBsAg OD3 ([3]; 200 μg/mL): 1.46
- HBV DNA Average ([4]; 12.5 μg/ml): 1.06 × 10^6 copies/ml
- HBV DNA Inhibit ([4]; 12.5 μg/ml): 9.40%
- HBV DNA copies/ml ([4]; 12.5 μg/ml): 1.03E+06 copies/ml and 9.68E+05 copies/ml and 1.18E+06 copies/ml
- HBV DNA Average ([4]; 25 μg/ml): 1.03 × 10^5 copies/ml
- HBV DNA Inhibit ([4]; 25 μg/ml): 1.35%
- HBV DNA copies/ml ([4]; 25 μg/ml): 9.52E+05 copies/ml and 1.07E+06 copies/ml and 1.04E+06 copies/ml
- HBV DNA Average ([4]; 50 μg/ml): 1.28 × 10^6 copies/ml
- HBV DNA Inhibit ([4]; 50 μg/ml): 0.00%
- HBV DNA copies/ml ([4]; 50 μg/ml): 1.22E+06 copies/ml and 1.27E+06 copies/ml and 1.35E+06 copies/ml
- HBV DNA Average ([4]; 100 μg/ml): 1.32 × 10^6 copies/ml
- HBV DNA Inhibit ([4]; 100 μg/ml): 0.00%
- HBV DNA copies/ml ([4]; 100 μg/ml): 1.17E+06 copies/ml and 1.15E+06 copies/ml and 1.65E+06 copies/ml
- HBV DNA Average ([4]; 200 μg/ml): 1.20 × 10^6 copies/ml
- HBV DNA Inhibit ([4]; 200 μg/ml): 0.00%
- HBV DNA copies/ml ([4]; 200 μg/ml): 1.38E+06 copies/ml and 9.71E+05 copies/ml and 1.24E+06 copies/ml
- inhibition of HCV/HIV entry [5]: inactive
